Laboratory results taken from patent US20240174618A1, “SUBSTITUTED (2-HETEROARYLOXYPHENYL)SULFONATES, SALTS THEREOF AND THEIR USE AS HERBICIDAL AGENTS” (Bayer Aktiengesellschaft, priority 2021, published 2024).

Legend:
Assay type in all cases: in vivo
[1] = system: Abutilon theophrasti (ABUTH); assay: B. Herbicidal post-emergence efficacy, ABUTH; conditions: rated visually after about 3 weeks
Method in brief: (§1)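 Weeds grown in sandy loam in greenhouse pots, sprayed at one-leaf stage (2–3 weeks after sowing) with WP or EC formulations as aqueous suspension/emulsion plus 0.5% additive at 600 L/ha water, rates up to 1280 g/ha. Visual efficacy rated about 3 weeks later versus untreated controls (0% = like control, 100% = dead).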

[2] = system: Digitaria sanguinalis (DIGSA); assay: A. Herbicidal pre-emergence efficacy, DIGSA; conditions: scored visually after about 3 weeks vs untreated controls
Method in brief: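 Pre-emergence soil-surface spray in sandy loam pots, WP/EC in water plus 0.5% additive, 600 L/ha. Visual % damage rating after about 3 weeks in greenhouse vs. untreated; 0% = control-like, 100% = dead plants. Rates up to 1280 g/ha.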

[3] = system: Echinochloa crus-galli (ECHCG); assay: C. Herbicidal pre-emergence efficacy, ECHCG; conditions: scored after about 3 weeks
Method in brief: (§2)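 Pre-emergence test: formulated compounds sprayed as aqueous suspension or emulsion with 0.5% additive at 600 l/ha onto soil covering sown seeds, at rates corresponding to 320 g/ha or less. After about 3 weeks in greenhouse, efficacy scored visually as percent versus untreated controls (100% = plants dead).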

[4] = system: Kochia scoparia (KCHSC); assay: C. Herbicidal pre-emergence efficacy, KCHSC
Method in brief: as §2

[5] = system: Polygonum convolvulus (POLCO); assay: C. Herbicidal pre-emergence efficacy, POLCO; conditions: scored after about 3 weeks
Method in brief: as §2

[6] = system: Veronica persica (VERPE); assay: B. Herbicidal post-emergence efficacy, VERPE
Method in brief: as §1

[7] = system: Pharbitis purpurea (PHBPU); assay: E. Herbicidal post-emergence efficacy, PHBPU
Method in brief: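 Greenhouse post-emergence spray, one-leaf stage (2–3 wk after sowing, sandy loam); WP/EC formulation, aqueous + 0.5% additive, 600 l/ha water; rates 320 g/ha or less. Visual rating ~3 wk later vs untreated; 0% = control-like, 100% = dead.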

[8] = system: Digitaria sanguinalis (DIGSA); assay: B. Herbicidal post-emergence efficacy, DIGSA; conditions: rated visually after about 3 weeks
Method in brief: as §1

SMILES | Post-emergence efficacy against ABUTH in % ([1]; 320 g/ha) | Post-emergence efficacy against ABUTH in % ([1]; 1280 g/ha) | Pre-emergence efficacy against DIGSA ([2]; 80 g/ha) | Pre-emergence efficacy against DIGSA ([2]; 320 g/ha) | Pre-emergence efficacy against DIGSA ([2]; 1280 g/ha) | Pre-emergence efficacy against ECHCG ([3]; 80 g/ha) | Pre-emergence efficacy against ECHCG ([3]; 320 g/ha) | Pre-emergence efficacy against KCHSC in % ([4]; application rate 80 g/ha) | Pre-emergence efficacy against KCHSC in % ([4]; application rate 320 g/ha) | Pre-emergence efficacy against POLCO ([5]; 80 g/ha) | Pre-emergence efficacy against POLCO ([5]; 320 g/ha) | Post-emergence efficacy against VERPE ([6]; 80 g/ha) | Post-emergence efficacy against VERPE ([6]; 320 g/ha) | Post-emergence efficacy against VERPE ([6]; 1280 g/ha) | Post-emergence efficacy against PHBPU in % ([7]; application rate 80 g/ha) | Post-emergence efficacy against PHBPU in % ([7]; application rate 320 g/ha) | Post-emergence efficacy against DIGSA in % ([8]; 320 g/ha) | Post-emergence efficacy against DIGSA in % ([8]; 1280 g/ha) | Post-emergence efficacy against ABUTH in % ([1]; 80 g/ha)
Cc1cccc(Oc2ncc(F)cn2)c1OS(=O)(=O)CCC(F)(F)F [Example I-45] | 100% | 100% | 90% | 100% | 100% | 100% | 100% | 90% | 100% | 100% | 100% |  |  |  |  |  |  |  | 
O=S(=O)(CCCC(F)(F)F)Oc1c(F)cccc1Oc1ncc(Br)cn1 [Example I-41] |  |  | 100% | 100% | 100% | 100% | 100% | 100% | 100% | 100% | 100% | 90% | 90% | 90% | 100% | 100% | 90% | 90% | 
O=S(=O)(CCCC(F)(F)F)Oc1c(F)cccc1Oc1ncc(F)cn1 [Example I-42] | 100% | 100% | 100% | 100% | 100% | 100% | 100% | 100% | 100% | 100% | 100% |  |  |  | 100% | 100% |  |  | 100%
O=S(=O)(CCC(F)(F)F)Oc1c(Br)cccc1Oc1ncc(F)cn1 [Example I-43] | 90% | 100% |  | 100% | 100% |  | 90% | 100% | 100% | 90% | 90% |  |  |  | 80% | 90% |  |  | 
O=S(=O)(CCC(F)(F)F)Oc1c(Cl)cccc1Oc1ncc(Cl)cn1 [Example I-38] |  |  |  | 100% | 100% | 100% | 100% | 100% | 100% | 100% | 100% | 90% | 90% | 90% | 100% | 100% |  | 90% | 
O=S(=O)(CCC(F)(F)F)Oc1c(F)cccc1Oc1ncc(F)cn1 [Example I-47] | 100% | 100% | 100% | 100% | 100% | 100% | 100% | 100% | 100% | 100% | 100% |  |  |  | 90% | 100% |  |  | 90%
COCCS(=O)(=O)Oc1c(F)cccc1Oc1ncc(Cl)cn1 [Example I-52] |  | 90% |  | 90% | 100% | 100% | 100% | 100% | 100% | 90% | 100% |  |  |  |  |  |  | 90% | 
O=S(=O)(CCC(F)=C(F)F)Oc1c(Cl)cccc1Oc1ncc(Cl)cn1 [Example I-73] | 100% | 100% |  | 90% | 100% |  | 90% |  | 100% |  | 90% | 100% | 100% | 100% |  |  | 90% | 100% | 90%
O=S(=O)(CCC(F)(F)F)Oc1c(F)cccc1Oc1ncc(Br)cn1 [Example I-40] |  |  | 100% | 100% | 100% | 100% | 100% | 100% | 100% | 100% | 100% | 90% | 90% | 90% | 100% | 100% | 90% | 90% | 
N#Cc1cccc(Oc2ncc(Cl)cn2)c1OS(=O)(=O)CCCC(F)(F)F [Example I-81] |  |  |  |  |  |  | 100% | 100% | 100% | 80% | 90% |  |  |  | 90% | 100% |  |  | 
O=S(=O)(CCC(F)=C(F)F)Oc1c(F)cccc1Oc1ncc(Cl)cn1 [Example I-70] |  |  |  |  |  | 90% | 100% | 100% | 100% | 100% | 100% |  |  |  | 80% | 100% |  |  | 
Cc1cccc(Oc2ncc(F)cn2)c1OS(=O)(=O)CCCC(F)(F)F [Example I-46] | 100% | 100% | 90% | 100% | 100% | 90% | 100% |  | 100% | 90% | 100% |  |  |  | 80% | 90% |  |  | 
